SMILES strings stand for the structures.

For this assay, the target named is T1, LXRβ (Homo sapiens, UniProt P55055).
T1 construct: Co-transfection expression plasmids, comprising full-length LXRα (pCMX-h LXRα or LXRβ (pCMX-hLXRβ)); expressed in transfected cells; host or cells: CV-1 African green monkey kidney cells, transient transfection with pCMX-hLXRβ
T1 sequence (P55055 1-460): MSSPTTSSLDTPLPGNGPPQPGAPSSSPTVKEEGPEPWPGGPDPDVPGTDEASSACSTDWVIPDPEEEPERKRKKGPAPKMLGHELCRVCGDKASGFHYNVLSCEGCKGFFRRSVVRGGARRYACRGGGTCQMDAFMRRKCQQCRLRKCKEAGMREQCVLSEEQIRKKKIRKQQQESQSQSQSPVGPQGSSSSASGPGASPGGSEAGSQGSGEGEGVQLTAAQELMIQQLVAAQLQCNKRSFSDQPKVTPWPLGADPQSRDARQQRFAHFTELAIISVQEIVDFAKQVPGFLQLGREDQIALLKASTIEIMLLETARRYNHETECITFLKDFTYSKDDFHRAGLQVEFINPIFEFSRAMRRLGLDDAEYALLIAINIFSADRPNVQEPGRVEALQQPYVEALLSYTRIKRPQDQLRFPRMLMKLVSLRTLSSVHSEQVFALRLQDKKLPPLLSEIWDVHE
T1 sequence (P19793 1-462 partner): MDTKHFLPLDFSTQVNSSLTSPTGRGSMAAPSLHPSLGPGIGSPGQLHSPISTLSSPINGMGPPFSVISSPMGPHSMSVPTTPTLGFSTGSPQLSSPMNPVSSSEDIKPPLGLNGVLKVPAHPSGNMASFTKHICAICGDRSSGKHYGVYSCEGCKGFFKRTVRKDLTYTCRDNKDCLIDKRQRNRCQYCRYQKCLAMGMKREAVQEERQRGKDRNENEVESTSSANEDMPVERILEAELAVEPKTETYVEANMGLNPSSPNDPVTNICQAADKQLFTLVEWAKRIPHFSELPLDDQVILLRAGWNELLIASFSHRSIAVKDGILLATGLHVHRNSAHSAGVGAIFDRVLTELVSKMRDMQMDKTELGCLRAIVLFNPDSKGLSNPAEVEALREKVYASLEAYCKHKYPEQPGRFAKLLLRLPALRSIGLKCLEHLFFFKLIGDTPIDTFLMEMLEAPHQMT
Kind of assay: LXR/LXRE co-transfection assay (luciferase reporter) in CV-1 cells, LXRβ. In kind it is cell-based. The conditions noted are these: for EC50: CV-1 cells transfected with pCMX-hLXRβ and LXREx1-Tk-Luciferase, 20 hours incubation, read-out: LXRbeta agonism EC50; for Emax: CV-1 cells, relative to maximum response of high control N-(3-((4-fluorophenyl)-(naphthalene-2-sulfonyl)amino)propyl)-2,2-dimethylpropionamide, read-out: LXRbeta % EFFICACY
The source says:
To measure the ability of compounds to activate or inhibit the transcriptional activity of LXR in a cell based assay, the co-transfection assay was used. It has been shown that LXR functions as a heterodimer with RXR. For the co-transfection assay, expression plasmids for LXRα and LXRβ are introduced separately via transient transfection into mammalian cells along with a luciferase reporter plasmid that contains one copy of a DNA sequence that is bound by LXR-RXR heterodimers (LXRE; Willy, P. et. al. 1995). LXRs heterodimerize with the endogenous RXR. Treatment of transfected cells with an LXR agonist increases the transcriptional activity of LXR, which is measured by an increase in luciferase activity.
Co-transfection expression plasmids, comprising full-length LXRα (pCMX-h LXRα or LXRβ (pCMX-hLXRβ), reporter plasmid (LXREx1-Tk-Luciferase), and control (pCMX-Galactosidase expression vector) (Willey et al. Genes & Development 9 1033-1045 (1995)).
CV-1 cells were prepared 24 hours prior to the experiment by plating them into T-175 flasks or 500 cm^2 dishes in order to achieve 70-80% confluency on the day of the transfection. The number of cells to be transfected was determined by the number of plates to be screened. Each well of a 384 well plate requires 1.5×10^4 cells. DNA Transfection Reagent was prepared by mixing the required plasmid DNAs with a cationic lipid transfection reagent Transit 2020 (Mirus Bio) for CV1 by following the instructions provided with the reagents. Optimal DNA amounts were determined empirically per cell line and size of vessel to be transfected. For each T175 cm^2 flask a total of 44.4 ug for CV1 of DNA, 133 ul Transit2020 and 4.5 ml DMEM for CV1 was mixed and added. Cells were then incubated at least 5 hours at 37° C. to prepare screening cells.
Assay plates were prepared by dispensing 5 μL of compound per well of a 384 well plate to achieve final compound concentration of 10 μM and no more than 0.5% DMSO. Media was removed from the screening cells, the cells trypsinized, harvested cells by centrifugation, counted, and plated at a density of approximately 1.5×10^4 cells in the 384 well assay plate prepared above in a volume of about 95 uL. Assay plates containing both compounds and screening cells (100 μL in total volume) were incubated for 20 hours at 37° C.
After incubation with compounds, media was removed from the cells and luciferase assay reagent (30 μL/well) added. After ˜2 minutes at ambient temperature, the assay plates were read on a luminometer (PE Biosystems Northstar reader with on-board injectors, or Envision (Perkin Elmer) or equivalent).
The LXR/LXRE co-transfection assay can be used to establish the EC50/IC50 values for potency and percent activity or inhibition for efficacy. Efficacy defines the activity of a compound relative to a high control ((N-(3-((4-fluorophenyl)-(naphthalene-2-sulfonyl)amino)propyl)-2,2-dimethylpropionamide)) or a low control (DMSO/vehicle). The dose response curves are generated from a 10 point curve with concentrations differing by ½ LOG units. Each point represents the average of 4 wells of data from a 384 well plate.
The data from this assay is fitted to the following equation, from which the EC50 value may be solved: Y=Bottom+(Top−Bottom)/(1+10^((log EC50-X)*HillSlope)).
The EC50/IC50 is therefore defined as the concentration at which an agonist or antagonist elicits a response that is halfway between the Top (maximum) and Bottom (baseline) values. The EC50/IC50 values represented are the averages of at least 2 and normally 3 independent experiments. The determination of the relative efficacy or % control for an agonist is by comparison to the maximum response achieved by ((N-(3-((4-fluorophenyl)-(naphthalene-2-sulfonyl)-amino)propyl)-2,2-dimethylpropionamide) that is measured individually in each dose response experiment.
Table 1 lists LXRβ EC50 values and % efficacy measurements in the cotransfection assay for examples of this invention.

Take `Cc1nc(-c2ccc(OC(F)(F)F)cc2)c(-c2cc(-c3cc(F)c(CO)c(S(C)(=O)=O)c3)ccc2-n2ccc(C(N)=O)n2)o1` [Example 320, 1-(3′-fluoro-4′-(hydroxymethyl)-3-(2-methyl-4-(4-(trifluoromethoxy)phenyl)oxazol-5-yl)-5′-(methylsulfonyl)biphenyl-4-yl)-1H-pyrazole-3-carboxamide]: the concentration for a half-maximal effect (EC50) amounted to 472 nM and the Emax came out at 58%.

With `Cc1nc(-c2ccc(OC(F)(F)F)cc2)c(-c2cc(-c3cccc(S(C)(=O)=O)c3)ccc2-n2cc(C#N)c(C3CC3)n2)o1` [Example 447, 3-cyclopropyl-1-(3-(2-methyl-4-(4-(trifluoromethoxy)phenyl)oxazol-5-yl)-3′-(methylsulfonyl)-[1,1′-biphenyl]-4-yl)-1H-pyrazole-4-carbonitrile], the EC50 came to 116 nM and the Emax is 28%.

For the compound `Cc1nc(-c2cc(-c3cccc(S(C)(=O)=O)c3)ccc2-n2cc(Cl)c(C(F)(F)F)n2)c(-c2ccc(OC(F)(F)F)cc2)o1` [Example 310, 4-(4-(4-chloro-3-(trifluoromethyl)-1H-pyrazol-1-yl)-3′-(methylsulfonyl)-[1,1′-biphenyl]-3-yl)-2-methyl-5-(4-(trifluoromethoxy)phenyl)oxazole], the half-maximal effective concentration (EC50) stood at 27 nM and the Emax turned out to be 75%.

Regarding `Cc1nc(-c2cc(-c3ccc(CO)c(S(C)(=O)=O)c3)ccc2-n2nc(C(F)(F)F)cc2C)c(-c2ccc(OC(F)F)cc2)o1` [Example 392, (3′-(5-(4-(difluoromethoxy)phenyl)-2-methyloxazol-4-yl)-4′-(5-methyl-3-(trifluoromethyl)-1H-pyrazol-1-yl)-3-(methylsulfonyl)biphenyl-4-yl)methanol], the EC50 came out at 12 nM and the Emax came to 71%.

With `Cn1nc(C(F)(F)CO)cc1-c1ccc(-c2cccc(S(C)(=O)=O)c2)cc1-n1nncc1-c1ccc(Cl)cc1` [Example 24, 2-(5-(3-(5-(4-chlorophenyl)-1H-1,2,3-triazol-1-yl)-3′-(methylsulfonyl)-[1,1′-biphenyl]-4-yl)-1-methyl-1H-pyrazol-3-yl)-2,2-difluoroethanol], the concentration for a half-maximal effect (EC50) stood at 1380 nM and the Emax was 48%.

Turning to `Cc1nc(-c2ccc(OC(F)F)cc2)c(-c2cc(-c3cc(F)c(CO)c(S(C)(=O)=O)c3)ccc2-n2nc(C(F)(F)F)cc2C)o1` [Example 325, (3′-(4-(4-(difluoromethoxy)phenyl)-2-methyloxazol-5-yl)-3-fluoro-4′-(5-methyl-3-(trifluoromethyl)-1H-pyrazol-1-yl)-5-(methylsulfonyl)biphenyl-4-yl) methanol], the EC50 came to 12 nM and the Emax amounted to 78%.

Regarding `CS(=O)(=O)c1cc(-c2ccc(-n3ccc(C(F)(F)F)n3)c(-c3nc(C4CC4)oc3-c3ccc(OC(F)(F)F)cc3)c2)cc(F)c1CO` [Example 402, (3′-(2-cyclopropyl-5-(4-(trifluoromethoxy)phenyl)oxazol-4-yl)-3-fluoro-5-(methylsulfonyl)-4′-(3-(trifluoromethyl)-1H-pyrazol-1-yl)biphenyl-4-yl)methanol], the half-maximal effective concentration (EC50) turned out to be 14 nM and the Emax is 67%.

`CC(C)c1nc(-c2ccc(OC(F)(F)F)cc2)c(-c2cc(-c3cccc(S(C)(=O)=O)c3)ccc2-n2ccc(C(F)(F)F)n2)o1` [Example 340, 2-isopropyl-5-(3′-(methylsulfonyl)-4-(3-(trifluoromethyl)-1H-pyrazol-1-yl)biphenyl-3-yl)-4-(4-(trifluoromethoxy)phenyl)oxazole]: the EC50 worked out at 279 nM and the Emax came out at 72%.

`CNC(=O)C(F)(F)c1cc(-c2ccc(-c3cc(F)c(CO)c(S(C)(=O)=O)c3)cc2-c2oc(C)nc2-c2ccc(OC(F)F)c(F)c2)n(C)n1` [Example 78, 2-(5-(3-(4-(4-(difluoromethoxy)-3-fluorophenyl)-2-methyloxazol-5-yl)-3′-fluoro-4′-(hydroxymethyl)-5′-(methylsulfonyl)biphenyl-4-yl)-1-methyl-1H-pyrazol-3-yl)-2,2-difluoro-N-methylacetamide]: the concentration for a half-maximal effect (EC50) came out at 72 nM and the Emax stood at 79%.

For `Cc1nc(-c2ccc(OC(F)(F)F)cc2)c(-c2cc(-c3cccc(C(C)(C)C(N)=O)c3)ccc2-n2cc(Cl)c(C(F)(F)F)n2)o1` [Example 430, 2-(4′-(4-chloro-3-(trifluoromethyl)-1H-pyrazol-1-yl)-3′-(2-methyl-4-(4-(trifluoromethoxy)phenyl)oxazol-5-yl)-[1,1′-biphenyl]-3-yl)-2-methylpropanamide], the 50% effective concentration (EC50) was found to be 41 nM and the Emax was found to be 80%.

As for `Cc1nc(-c2ccc(OC(F)(F)F)cc2)c(-c2cc(-c3cccc(S(C)(=O)=O)c3)ccc2-n2ccc(C(F)(F)F)n2)o1` [Example 309, 2-methyl-5-(3′-(methylsulfonyl)-4-(3-(trifluoromethyl)-1H-pyrazol-1-yl)-[1,1′-biphenyl]-3-yl)-4-(4-(trifluoromethoxy)phenyl)oxazole], the EC50 was found to be 120 nM and the Emax is 68%.

For `COc1ncc(-c2oc(C)nc2-c2cc(-c3cc(F)c(CO)c(S(C)(=O)=O)c3)ccc2-n2ccc(C(F)(F)F)n2)cc1F` [Example 408, (3-fluoro-3′-(5-(5-fluoro-6-methoxypyridin-3-yl)-2-methyloxazol-4-yl)-5-(methylsulfonyl)-4′-(3-(trifluoromethyl)-1H-pyrazol-1-yl)biphenyl-4-yl)methanol], the EC50 turned out to be 18 nM and the Emax was 73%.

Turning to `Cc1nc(-c2ccc(OC(F)F)nc2)c(-c2cc(-c3cc(F)c(CO)c(S(C)(=O)=O)c3)ccc2-n2ccc(C(F)(F)F)n2)o1` [Example 354, (3′-(4-(6-(difluoromethoxy)pyridin-3-yl)-2-methyloxazol-5-yl)-3-fluoro-5-(methylsulfonyl)-4′-(3-(trifluoromethyl)-1H-pyrazol-1-yl)biphenyl-4-yl)methanol], the EC50 worked out at 10 nM and the Emax worked out at 101%.

For the origin of these results see patent publication US9751869B2, “LXR modulators” (BRISTOL-MYERS SQUIBB COMPANY, priority 2013, dated 2017).
